Molecular target: T1, IRAK4 (Homo sapiens, UniProt Q9NWZ3)
T1 construct: endogenous in cells; host or cells: OCI-LY10
T1 sequence (Q9NWZ3 1-460): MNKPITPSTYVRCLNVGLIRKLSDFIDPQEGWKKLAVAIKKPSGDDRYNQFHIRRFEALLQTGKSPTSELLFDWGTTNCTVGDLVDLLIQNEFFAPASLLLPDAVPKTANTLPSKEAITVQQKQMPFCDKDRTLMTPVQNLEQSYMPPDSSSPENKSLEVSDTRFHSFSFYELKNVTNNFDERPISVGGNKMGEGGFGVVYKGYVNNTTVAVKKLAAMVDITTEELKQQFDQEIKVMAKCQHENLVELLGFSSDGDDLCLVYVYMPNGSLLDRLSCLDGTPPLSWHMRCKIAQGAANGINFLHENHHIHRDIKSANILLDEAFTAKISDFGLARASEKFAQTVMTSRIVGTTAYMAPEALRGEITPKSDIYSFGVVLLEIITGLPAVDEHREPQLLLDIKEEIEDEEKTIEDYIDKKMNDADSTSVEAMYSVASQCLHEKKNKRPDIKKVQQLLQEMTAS
Test: IRAK4 MSD degradation in OCI-LY10
Assay type: cell-based
Conditions: OCI-LY10 cells, 24 hrs, Meso Scale Discovery
In short: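 Remaining IRAK4 protein measured by Meso Scale Discovery electrochemiluminescence sandwich assay on lysates of OCI-LY10 cells. Cells were exposed for 4 to 24 hours (37° C., 5% CO2) to eight 1:3-diluted concentrations starting at 1 to 10 μM. DC50 derived by three-parameter logistic fitting.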

SMILES | DC50
Cc1nn([C@H]2CCC(=O)NC2=O)c2cccc(N3CC(CN4CCN(C[C@H]5CC[C@H](n6cc(NC(=O)c7cnn8ccc(N9C[C@H]%10C[C@@H]9CO%10)nc78)c(C(F)F)n6)CC5)CC4)C3)c12 [I-88] | < 10 nM
COc1cc2nn([C@H]3CC[C@H](CN(C)[C@@H]4CCN(c5cccc6c5n(C)c(=O)n6C5CCC(=O)NC5=O)C[C@H]4F)CC3)cc2cc1NC(=O)c1cccc(C(F)(F)F)n1 (stereo partly shown) [I-90] | < 10 nM
Cn1nc(N2CCC(=O)NC2=O)c2cccc(N3CC(CN4CCN(C[C@H]5CC[C@H](n6cc(NC(=O)c7cnn8ccc(N9C[C@H]%10C[C@@H]9CO%10)nc78)c(C(F)F)n6)CC5)CC4)C3)c21 [I-91] | 10 to 100 nM
Cc1nn(C2CCC(=O)NC2=O)c2cc(F)cc(N3CC(CN4CCN(C[C@H]5CC[C@H](n6cc(NC(=O)c7cnn8ccc(N9C[C@H]%10C[C@@H]9CO%10)nc78)c(C(F)F)n6)CC5)CC4)C3)c12 (stereo partly shown) [I-92] | < 10 nM
Cn1nc(C2CCC(=O)NC2=O)c2cccc(N3CC(CN4CCN(C[C@H]5CC[C@H](n6cc(NC(=O)c7cnn8ccc(N9C[C@H]%10C[C@@H]9CO%10)nc78)c(C(F)F)n6)CC5)CC4)C3)c21 (stereo partly shown) [I-93] | < 10 nM
Cn1c(=O)n(C2CCC(=O)NC2=O)c2cccc([C@@H]3CCN(C[C@H]4C[C@H](n5cc6cc(NC(=O)c7cccc(C(F)(F)F)n7)c(C#N)cc6n5)C4)C[C@H]3F)c21 (stereo partly shown) [I-94] | < 10 nM
Cn1c(=O)n(C2CCC(=O)NC2=O)c2cccc([C@H]3CCN(C[C@H]4CC[C@H](c5nc6ccc(NC(=O)c7cccc(C(F)(F)F)n7)cc6s5)CC4)C[C@@H]3F)c21 (stereo partly shown) [I-97] | 10 to 100 nM
Cn1c(=O)n(C2CCC(=O)NC2=O)c2cccc([C@H]3CCN(C[C@H]4CC[C@H](c5nc6cc(C(C)(C)O)c(NC(=O)c7cccc(C(F)(F)F)n7)cc6s5)CC4)C[C@@H]3F)c21 (stereo partly shown) [I-103] | < 10 nM
CN(C[C@H]1CC[C@H](c2nc3cc(C(C)(C)O)c(NC(=O)c4cccc(C(F)(F)F)n4)cc3s2)CC1)[C@H]1CCN(c2cccc3c2n(C)c(=O)n3C2CCC(=O)NC2=O)C[C@H]1F (stereo partly shown) [I-105] | < 10 nM
Cn1c(=O)n(C2CCC(=O)NC2=O)c2cccc(OC3CC4(CCN(Cc5ccc(-n6cc(NC(=O)c7cnn8ccc(N9C[C@H]%10C[C@@H]9CO%10)nc78)c(C(F)F)n6)cc5)CC4)C3)c21 (stereo partly shown) [I-113] | < 10 nM
Cn1c(=O)n(C2CCC(=O)NC2=O)c2cccc(N3CC(C4CCN([C@H]5CC[C@H](n6cc(NC(=O)c7cnn8ccc(N9C[C@H]%10C[C@@H]9CO%10)nc78)c(C(F)F)n6)CC5)CC4(F)F)C3)c21 (stereo partly shown) [I-115] | < 10 nM
COc1cc2nn([C@H]3CC[C@H](CN4CCN(c5cccc6c5c(C)nn6C5CCC(=O)NC5=O)CC4)CC3)cc2cc1NC(=O)c1cncc(C)c1 (stereo partly shown) [I-118] | 10 to 100 nM
O=C1CCN(c2cncc3c(N4CC(CO[C@@H]5CCN(C[C@H]6CC[C@H](n7cc(NC(=O)c8cnn9ccc(N%10C[C@H]%11C[C@@H]%10CO%11)nc89)c(C(F)F)n7)CC6)C[C@@H]5F)C4)cccc23)C(=O)N1 [I-120] | < 10 nM
Cn1nc(C2CCC(=O)NC2=O)c2cccc([C@@H]3CCN(C[C@H]4CC[C@H](n5cc6cc(NC(=O)c7cccc(C(F)(F)F)n7)ccc6n5)CC4)C[C@H]3F)c21 (stereo partly shown) [I-122] | < 10 nM
Cn1c(=O)n(C2CCC(=O)NC2=O)c2cccc(N3CC(COC[C@H]4CC[C@H](n5cc6cc(NC(=O)c7cccc(C(F)(F)F)n7)ccc6n5)CC4)C3)c21 (stereo partly shown) [I-123] | 10 to 100 nM
O=C1CC[C@H](c2ccc(N3CC(N4CCN([C@H]5CC[C@H](n6cc(NC(=O)c7cnn8ccc(N9C[C@H]%10C[C@@H]9CO%10)nc78)c(C(F)F)n6)CC5)CC4)C3)cc2Cl)C(=O)N1 [I-124] | < 10 nM
O=C1CC[C@@H](c2ccc(N3CC(N4CCN([C@H]5CC[C@H](n6cc(NC(=O)c7cnn8ccc(N9C[C@H]%10C[C@@H]9CO%10)nc78)c(C(F)F)n6)CC5)CC4)C3)cc2Cl)C(=O)N1 [I-125] | 10 to 100 nM
Cn1c(=O)n(C2CCC(=O)NC2=O)c2cccc(N3CC(COC[C@H]4CC[C@H](n5cc6cc(NC(=O)c7cccc(C(F)(F)F)c7)ccc6n5)CC4)C3)c21 (stereo partly shown) [I-126] | 10 to 100 nM
COc1cc2nn([C@H]3CC[C@H](CN4CCC5(CCN(c6ccc(C7CCC(=O)NC7=O)c(Cl)c6)CC5)C(F)(F)C4)CC3)cc2cc1NC(=O)c1cncc(C#N)c1 (stereo partly shown) [I-130] | 10 to 100 nM
COc1cc2nn([C@H]3CC[C@H](CN4CCC5(CCN(c6cccc7c6c(C)nn7C6CCC(=O)NC6=O)CC5)C(F)(F)C4)CC3)cc2cc1NC(=O)c1cncc(C#N)c1 (stereo partly shown) [I-131] | 10 to 100 nM
CN(C[C@H]1CC[C@H](c2nc3cc(C(C)(C)O)c(NC(=O)c4cccc(C(F)(F)F)n4)cc3o2)CC1)[C@H]1CCN(c2cccc3c2n(C)c(=O)n3C2CCC(=O)NC2=O)C[C@@H]1F (stereo partly shown) [I-138] | < 10 nM
CN(C[C@H]1CC[C@H](c2nc3cc(C(C)(C)O)c(NC(=O)c4cccc(C(F)(F)F)n4)cc3o2)CC1)[C@@H]1CCN(c2cccc3c2n(C)c(=O)n3C2CCC(=O)NC2=O)C[C@@H]1F (stereo partly shown) [I-139] | < 10 nM

SMILES | DC50
COc1cc2nc([C@H]3CC[C@H](CN4CCC5(CCN(c6cccc7c6n(C)c(=O)n7C6CCC(=O)NC6=O)CC5)C(F)(F)C4)CC3)sc2cc1NC(=O)c1cncc(C#N)c1 (stereo partly shown) [I-150] | > 200 nM
COc1cc2nn([C@H]3CC[C@H](CN4CCC5(CCN(c6cccc7c6n(C)c(=O)n7C6CCC(=O)NC6=O)CC5)C(F)(F)C4)CC3)cc2cc1NC(=O)c1cccc(C(F)(F)F)c1 (stereo partly shown) [I-151] | 10 to 100 nM
COc1cc2nc(C3CCN(CC4(F)CCN(c5cccc6c5n(C)c(=O)n6C5CCC(=O)NC5=O)CC4)CC3)sc2cc1NC(=O)c1cncc(C#N)c1 (stereo not shown) [I-157] | > 200 nM
Cn1c(=O)n(C2CCC(=O)NC2=O)c2cccc(N3CCC4(CCN(C[C@H]5CC[C@H](n6cc7cc(NC(=O)c8cccc(C(F)(F)F)c8)ccc7n6)CC5)CC4(F)F)CC3)c21 (stereo partly shown) [I-158] | 10 to 100 nM
Cn1c(=O)n(C2CCC(=O)NC2=O)c2cccc([C@@H]3CCN(C[C@H]4CC[C@H](n5cc6cc(NC(=O)c7cccnn7)ccc6n5)CC4)C[C@H]3F)c21 (stereo partly shown) [I-164] | 10 to 100 nM
Cn1c(=O)n(C2CCC(=O)NC2=O)c2cccc([C@@H]3CCN(C[C@H]4CC[C@H](n5cc6cc(NC(=O)c7coc(C(F)(F)F)n7)ccc6n5)CC4)C[C@H]3F)c21 (stereo partly shown) [I-165] | < 10 nM
COc1cc2nc([C@H]3CC[C@H](CN4CCC5(CCN(c6cccc7c6n(C)c(=O)n7C6CCC(=O)NC6=O)CC5)C(F)(F)C4)CC3)cn2cc1NC(=O)c1cncc(C#N)c1 (stereo partly shown) [I-168] | > 200 nM
COc1cc2nc([C@H]3CC[C@H](CN4CC[C@@H](c5cccc6c5n(C)c(=O)n6C5CCC(=O)NC5=O)[C@H](F)C4)CC3)sc2cc1NC(=O)c1cncc(C(F)(F)F)n1 (stereo partly shown) [I-174] | 10 to 100 nM
Cc1nn(C2CCC(=O)NC2=O)c2cccc([C@@H]3CCN(C[C@H]4CC[C@H](n5cc6cc(NC(=O)c7cccc(C(F)(F)F)n7)ncc6n5)CC4)C[C@H]3F)c12 (stereo partly shown) [I-187] | 10 to 100 nM
COc1cc2nc([C@H]3CC[C@H](CN4CC[C@@H](c5cccc6c5n(C)c(=O)n6C5CCC(=O)NC5=O)[C@H](F)C4)CC3)cn2cc1NC(=O)c1cncc(C#N)c1 (stereo partly shown) [I-198] | > 200 nM
CN(C[C@H]1CC[C@H](n2cc(NC(=O)c3cnn4cccnc34)c(C(F)F)n2)CC1)[C@@H]1CCN(c2cccc3c2n(C)c(=O)n3C2CCC(=O)NC2=O)CC1(F)F (stereo partly shown) [I-202] | 10 to 100 nM
CN(C[C@H]1CC[C@H](n2cc(NC(=O)c3cnn4cccnc34)c(C(F)F)n2)CC1)[C@H]1CCN(c2cccc3c2n(C)c(=O)n3C2CCC(=O)NC2=O)CC1(F)F (stereo partly shown) [I-203] | 10 to 100 nM
CN(C[C@H]1CC[C@H](c2nc3cc(C(C)(C)O)c(NC(=O)c4cccc(C(F)(F)F)n4)cc3s2)CC1)[C@H]1CCN(c2cccc3c2n(C)c(=O)n3C2CCC(=O)NC2=O)C[C@@H]1F (stereo partly shown) [I-239] | 10 to 100 nM
Cn1c(=O)n(C2CCC(=O)NC2=O)c2cccc(N3CC(OC[C@H]4CC[C@H](n5cc6cc(NC(=O)c7cccc(C(F)(F)F)n7)ccc6n5)CC4)C3)c21 (stereo partly shown) [I-242] | > 200 nM
Cn1c(=O)n(C2CCC(=O)NC2=O)c2cccc(N3CC(OC[C@H]4CC[C@H](n5cc6cc(NC(=O)c7cccc(C(F)(F)F)c7)ccc6n5)CC4)C3)c21 (stereo partly shown) [I-251] | > 200 nM
COc1cc2nc([C@H]3CC[C@H](CN4CC[C@@H](c5cccc6c5n(C)c(=O)n6C5CCC(=O)NC5=O)[C@H](F)C4)CC3)sc2cc1NC(=O)c1cncc(C#N)c1 (stereo partly shown) [I-277] | > 200 nM
COc1cn2nc([C@H]3CC[C@H](CN4CCC5(CCN(c6cccc7c6n(C)c(=O)n7C6CCC(=O)NC6=O)CC5)C(F)(F)C4)CC3)cc2cc1NC(=O)c1cncc(C#N)c1 (stereo partly shown) [I-282] | > 200 nM
Cc1nn(C2CCC(=O)NC2=O)c2ccc(F)c(N3CC(CN4CCN(C[C@H]5CC[C@H](n6cc(NC(=O)c7cnn8ccc(N9C[C@H]%10C[C@@H]9CO%10)nc78)c(C(F)F)n6)CC5)CC4)C3)c12 (stereo partly shown) [I-287] | < 10 nM
Cn1c(=O)n(C2CCC(=O)NC2=O)c2cccc([C@@H]3CCN(C[C@H]4CC[C@H](c5nc6ccc(NC(=O)c7cncc(C(F)(F)F)n7)cc6o5)CC4)C[C@H]3F)c21 (stereo partly shown) [I-295] | > 200 nM
COc1cn2nc([C@H]3CC[C@H](CN(C)[C@H]4CCN(c5cccc6c5n(C)c(=O)n6C5CCC(=O)NC5=O)C[C@@H]4F)CC3)cc2cc1NC(=O)c1cncc(C(F)(F)F)n1 (stereo partly shown) [I-301] | < 10 nM
Cn1c(=O)n(C2CCC(=O)NC2=O)c2cccc([C@@H]3CCN(C[C@H]4CC[C@H](n5cc6cc(NC(=O)c7cnnc(C(F)(F)F)c7)ccc6n5)CC4)C[C@H]3F)c21 (stereo partly shown) [I-316] | > 200 nM

Source: US20250059164A1, “IRAK DEGRADERS AND USES THEREOF” (Kymera Therapeutics, Inc., priority 2023, published 2025)
